Assay results reported in patent US20230270721A1, “INHIBITION OF BAX-MEDIATED CELL DEATH BY ELTROMBOPAG” (Albert Einstein College of Medicine, priority 2020, published 2023).

What was measured:
[1] = molecular target: T1, BAX K21E (Homo sapiens, UniProt Q07812, K21E); experiment: Liposomal permeabilization assay, trigger site mutant K21E; assay type: biochemical; conditions: 250 nM BAX and 5 nM tBID
T1 construct: Human full-length (1-192) wild-type BAX (Q07812); made in house; host or cells: E. coli BL21 (DE3) CodonPlus (DE3)-RIPL
Experimental: Lipids (Avanti Polar Lipids) at the following ratio, phosphatidylcholine 48%, phosphatidylinositol 10%, dioleoyl phosphatidylserine 10%, phosphatidylethanolamine, 28%, and tetraoleoyl cardiolipin 4%, were mixed in a total of 1 mg, dried and resuspended in 10 mM HEPES, pH 7, 200 mM KCI, and 5 mM MgCl2 with 12.5 mM 8-aminonaphthalene-1,3,6-trisulfonic acid (ANTS) dye and 45 mM p-xylene-bis-pyridinium bromide (DPX) quencher (Molecular Probes) using a water bath sonicator. Liposomes were formed by extrusion of the suspension using Avanti Mini-Extruder (Cat # 610000) with polycarbonate membranes of 0.1 µm pore size (Avanti Polar Lipids). […] ANTS/DPX release was quantified based on the increase in fluorescence intensity that occurs when the ANTS fluorophore is separated from the DPX quencher upon release from the liposomes into solution. Fluorescence (λex = 355 nm and λem = 520 nm) was measured at 1 minute intervals at room temperature (22-25° C.) indicated using a Tecan Infinite M1000 plate reader. In the case of heat activation, reactions were set up as described in the absence of tBID or BIM, and experiments were recorded at 42° C. The percentage release of ANTS/DPX at any given time point was calculated as percentage release=((F-F0)/(F100-F0))(100), where F0 and F100 are baseline and maximal fluorescence, respectively. […]

[2] = molecular target: T2, BAX-4C R134E R145E (Homo sapiens, UniProt Q07812, C126S/C62S/R134E/R145E/S4C); experiment: Microscale thermophoresis (MST) direct binding, double mutant; conditions: double mutant versus wild type BAX-4C
T2 construct: Human full-length (1-192) wild-type BAX (Q07812); made in house; host or cells: E. coli BL21 (DE3) CodonPlus (DE3)-RIPL
Experimental: Recombinant BAX C62S-C126S-S5C (4C), previously established for evaluating BAX (Garner, T.P., et al. Nat Chem Biol 15, 322-330 (2019)) binding compounds with MST, or BAX C62S-C126S-S5C-R134E-R145E (R134E-R145E-4C) was labeled at cysteine using the Monolith Protein Labeling Kit Red Maleimide (NanoTemper Technologies) according to the instructions of the manufacturer (Garner, T.P., et al. Nat Chem Biol 15, 322-330 (2019)). Briefly, 10 µM protein was incubated with 0.9 equivalents of dye in MST buffer (100 mM potassium phosphate, pH 7.4, 150 mM NaCI) in the dark at room temperature (22-25° C.) for 1 hr. Unreacted dye was quenched using 5 mM DTT and removed using the manufacturer-provided buffer exchange column. […] Samples were loaded into standard glass capillaries (Monolith NT.155 Capillaries) and analyzed by MST using a Monolith NT.115 Blue/Red, LED power and IR laser power of 80%. Fraction bound and error was generated by NanoTemper software (MO.Affinity Analysis), and KD values were determined using GraphPad Prism nonlinear fit four-parameter agonist versus response with restraints for 0 and 1 fraction bound.
With this known, the EO docking poses were reevaluated, and the top pose featuring an ionic interaction between the EO-carboxylate and sidechain of R145 was analyzed (FIGS. 2E, 2F, and 2G). […]

[3] = tested on: platelets of C57BL/6J mice; experiment: In vivo mouse platelet experiments; conditions: co-administration: ABT-263 25 mg/kg + EO 100 mg/kg then 50 mg/kg 3 hrs later, oral gavage, 24 hours
Experimental: Wild type black mice strain C57BL/6J were treated with vehicle, ABT-263 (25 mg/kg, single dose), EO (100 mg/kg, then 3 hrs later 50 mg/kg), or a combination of ABT-263 and EO. EO was formulated in dH2O, and ABT-263 was formulated in 10% ethanol, 30% polyethylene glycol 400, and 60% Phosal 50 PG. Both ABT-263 and EO were administered by oral gavage. Blood samples were collected by submandibular bleed before treatment and 24 hours following treatment, and CBC was acquired. Percentage platelet protection was calculated as follows: % Platelet Protection = (100)(Px - mPABT)/(mPv - mPABT) where Px is the platelet count for a given mouse, mPv is the mean vehicle treated platelet count, and mPABT is the mean ABT-263 treated platelet count. Statistical analysis was performed using one-way ANOVA with select multiple comparisons as shown.
Finally, whether EO can rescue thrombocytopenia induced by the activity of navitoclax was evaluated in mice. The use of navitoclax is limited by on-target toxicity triggering BAK/BAX-mediated platelet apoptosis (Zhang, H. et al. Cell Death Differ 14, 943-951 (2007)). […] This EO effect is distinct from its capacity to stimulate platelet production by differentiation of the megakaryocyte precursors and progenitor cells, which requires 5 days to begin (Erickson-Miller, C. L. et al. Stem Cells 27, 424-430 (2009); Jenkins, J. M. et al. Blood 109, 4739-4741 (2007)).

[4] = cited from earlier work

T2 sequence (Q07812 whole entry S4C/C62S/C126S/R134E/R145E): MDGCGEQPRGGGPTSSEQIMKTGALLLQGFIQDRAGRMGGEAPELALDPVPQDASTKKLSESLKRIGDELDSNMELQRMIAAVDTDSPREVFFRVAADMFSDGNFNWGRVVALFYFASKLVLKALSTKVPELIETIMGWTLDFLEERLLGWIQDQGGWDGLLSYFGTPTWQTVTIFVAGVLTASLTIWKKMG
T1 sequence (Q07812 whole entry K21E): as the sequence (Q07812 whole entry S4C/C62S/C126S/R134E/R145E) above, with C4S, K21E, S62C, S126C, E134R, E145R counted along it

## CC1=NN(c2ccc(C)c(C)c2)C(=O)/C1=N\Nc1cccc(-c2cccc(C(=O)O)c2)c1O [EO, eltrombopag]
[1]
  inhibition of liposomal release versus BAX WT: not reduced inhibition
[2]
  affinity as determined by MST: markedly reduced affinity
[3]
  navitoclax-induced platelet loss: markedly inhibited platelet loss to acceptable levels
[4]; after oral administration
  time of peak concentration: 2 to 6 h
[4]; in vivo, po
  oral bioavailability: excellent oral bioavailability
[4]; oral administration
  half-life: 21 to 32 h
